In ChEMBL document CHEMBL3044676, “Effect of Antibiotics on Formation of Aerial Mycelium and Production of Phytotoxins in Streptomyces spp” (2003):
Calls of active or inactive are those of the source. No cut-off for these calls is given here.

Legend:
[1] = tested on: Streptomyces acidiscabies; assay: Antimicrobial activity against Streptomyces acidiscabies ATCC 4900315 assessed as inhibition of aerial mycelial growth at 0.4 ug/disk after 5 days by paper disk method; assay type: functional; conditions: for zone of inhibition at 0.4 µg/disc: ATCC 4900315, 120 h, read-out: DIZ
Streptomyces scabiei [2] = assay: Antimicrobial activity against Streptomyces scabiei ATCC 4917314 assessed as inhibition of aerial mycelial growth at 4 ug/disk after 5 days by paper disk method; assay type: functional; conditions: for zone of inhibition at 4 µg/disc: ATCC 4917314, 120 h, read-out: DIZ
Streptomyces alboniger [3] = assay: Antimicrobial activity against Streptomyces alboniger IFO 12738 assessed as inhibition of aerial mycelial growth at 0.4 ug/disk after 5 days by paper disk method; assay type: functional; conditions: for zone of inhibition at 0.4 µg/disc: IFO 12738, 120 h, read-out: DIZ
[4] = tested on: Streptomyces acidiscabies; assay: Antimicrobial activity against Streptomyces acidiscabies ATCC 4900315 assessed as inhibition of growth at 4 ug/disk after 5 days by paper disk method; assay type: functional; conditions: for zone of inhibition at 4 µg/disc: ATCC 4900315, 120 h, read-out: DIZ
Streptomyces scabiei [5] = assay: Antimicrobial activity against Streptomyces scabiei ATCC 4917314 assessed as inhibition of aerial mycelial growth at 0.04 ug/disk after 5 days by paper disk method; assay type: functional; conditions: for zone of inhibition at 0.04 µg/disc: ATCC 4917314, 120 h, read-out: DIZ
Streptomyces alboniger [6] = assay: Antimicrobial activity against Streptomyces alboniger IFO 12738 assessed as inhibition of aerial mycelial growth at 0.04 ug/disk after 5 days by paper disk method; assay type: functional, organism-based
Streptomyces alboniger [7] = assay: Antimicrobial activity against Streptomyces alboniger IFO 12738 assessed as inhibition of aerial mycelial growth at 4 ug/disk after 5 days by paper disk method; assay type: functional; conditions: for zone of inhibition at 4 µg/disc: IFO 12738, 120 h, read-out: DIZ
Streptomyces alboniger [8] = assay: Antimicrobial activity against Streptomyces alboniger IFO 12738 assessed as inhibition of growth at 4 ug/disk after 5 days by paper disk method; assay type: functional; conditions: IFO 12738, 120 h, read-out: DIZ
[9] = tested on: Streptomyces acidiscabies; assay: Antimicrobial activity against Streptomyces acidiscabies ATCC 4900315 assessed as inhibition of aerial mycelial growth at 4 ug/disk after 5 days by paper disk method; assay type: functional; conditions: for zone of inhibition at 4 µg/disc: ATCC 4900315, 120 h, read-out: DIZ
Streptomyces scabiei [10] = assay: Antimicrobial activity against Streptomyces scabiei ATCC 4917314 assessed as inhibition of growth at 0.4 ug/disk after 5 days by paper disk method; assay type: functional; conditions: for zone of inhibition at 0.4 µg/disc: ATCC 4917314, 120 h, read-out: DIZ
[11] = tested on: Streptomyces acidiscabies; assay: Antimicrobial activity against Streptomyces acidiscabies ATCC 4900315 assessed as inhibition of aerial mycelial growth at 0.04 ug/disk after 5 days by paper disk method; assay type: functional
Streptomyces scabiei [12] = assay: Antimicrobial activity against Streptomyces scabiei ATCC 4917314 assessed as inhibition of growth at 4 ug/disk after 5 days by paper disk method; assay type: functional; conditions: ATCC 4917314, 120 h, read-out: DIZ
Streptomyces scabiei [13] = assay: Antimicrobial activity against Streptomyces scabiei ATCC 4917314 assessed as inhibition of aerial mycelial growth at 0.40 ug/disk after 5 days by paper disk method; assay type: functional; conditions: for zone of inhibition at 0.4 µg/disc: ATCC 4917314, 120 h, read-out: DIZ
Streptomyces alboniger [14] = assay: Antimicrobial activity against Streptomyces alboniger IFO 12738 assessed as inhibition of growth at 0.4 ug/disk after 5 days by paper disk method; assay type: functional; conditions: IFO 12738, 120 h, read-out: DIZ

| SMILES | zone of inhibition at 0.4 µg/disc [1] [mm] | zone of inhibition at 4 µg/disc (Streptomyces scabiei [2]) [mm] | diameter of the inhibition zone (DIZ) (Streptomyces alboniger [3]) | zone of inhibition at 4 µg/disc [4] [mm] | diameter of the inhibition zone (DIZ) (Streptomyces alboniger [6]) | zone of inhibition at 4 µg/disc [9] [mm] | diameter of the inhibition zone (DIZ) [11] | zone of inhibition at 4 µg/disc (Streptomyces scabiei [12]) [mm] | zone of inhibition at 0.4 µg/disc (Streptomyces scabiei [13]) [mm] | diameter of the inhibition zone (DIZ) (Streptomyces scabiei [5]) | diameter of the inhibition zone (DIZ) [1] | diameter of the inhibition zone (DIZ) (Streptomyces scabiei [13]) | diameter of the inhibition zone (DIZ) (Streptomyces alboniger [7]) | also measured |
| --- | --- | --- | --- | --- | --- | --- | --- | --- | --- | --- | --- | --- | --- | --- |
| CO[C@@H]1[C@@H](O[C@@H]2O[C@H](C)[C@@H](O[C@H]3C[C@@](C)(O)[C@@H](OC(=O)CC(C)C)[C@H](C)O3)[C@H](N(C)C)[C@H]2O)[C@@H](CC=O)C[C@@H](C)[C@@H](O)/C=C/C=C/C[C@@H](C)OC(=O)C[C@H]1OC(C)=O [JOSAMYCIN] | 13 | 29 | inactive | 10 | inactive | 17 | inactive | 21 | 17 | – | – | – | – | zone of inhibition at 0.04 µg/disc (Streptomyces scabiei [5]): 15 mm; zone of inhibition at 4 µg/disc (Streptomyces alboniger [7]): 15 mm; zone of inhibition at 4 µg/disc (Streptomyces alboniger [8]): 14 mm; zone of inhibition at 0.4 µg/disc (Streptomyces scabiei [10]): 11 mm |
| CO[C@@H]1[C@@H](OC(N)=O)[C@@H](O)[C@H](Oc2ccc3c(O)c(NC(=O)c4ccc(O)c(CC=C(C)C)c4)c(=O)oc3c2C)OC1(C)C [NOVOBIOCIN] | 14 | 44 | – | 18 | inactive | 39 | inactive | 26 | 28 | inactive | – | – | – | zone of inhibition at 0.4 µg/disc (Streptomyces alboniger [3]): 11 mm; zone of inhibition at 4 µg/disc (Streptomyces alboniger [8]): 21 mm; zone of inhibition at 0.4 µg/disc (Streptomyces scabiei [10]): 17 mm |
| CC1(C)S[C@@H]2[C@H](NC(=O)[C@H](N)c3ccccc3)C(=O)N2[C@H]1C(=O)O [AMPICILLIN] | – | 16 | inactive | – | inactive | 16 | inactive | – | – | inactive | inactive | inactive | – | diameter of the inhibition zone (DIZ) [4]: inactive |
| CN(CC[C@H](N)CC(=O)N[C@H]1CC[C@H](n2ccc(N)nc2=O)O[C@@H]1C(=O)O)C(=N)N [BLASTADIN S] | – | 23 | inactive | – | inactive | 9 | inactive | – | 10 | inactive | inactive | – | inactive | – |
| O=C(N[C@H](CO)[C@H](O)c1ccc([N+](=O)[O-])cc1)C(Cl)Cl [CHLORAMPHENICOL] | – | 29 | inactive | – | inactive | 10 | inactive | 15 | 13 | inactive | inactive | – | – | zone of inhibition at 4 µg/disc (Streptomyces alboniger [7]): 44 mm; zone of inhibition at 4 µg/disc (Streptomyces alboniger [8]): 16 mm |
| CCC[C@@H]1C[C@@H](C(=O)N[C@@H]([C@H]2O[C@H](SC)[C@H](O)[C@@H](O)[C@H]2O)[C@@H](C)O)N(C)C1 [LINCOMYCIN] | – | 40 | – | – | – | – | inactive | – | 34 | – | inactive | – | – | zone of inhibition at 0.4 µg/disc (Streptomyces alboniger [3]): 18 mm; zone of inhibition at 0.04 µg/disc (Streptomyces scabiei [5]): 20 mm; zone of inhibition at 4 µg/disc (Streptomyces alboniger [7]): 40 mm; zone of inhibition at 4 µg/disc (Streptomyces alboniger [8]): 12 mm; diameter of the inhibition zone (DIZ) [9]: inactive |
| CO[C@@H]1[C@H](O)C[C@@H](O[C@@H]2C[C@H](Oc3cc4cc5c(c(O)c4c(O)c3C)C(=O)[C@@H](O[C@H]3C[C@@H](O[C@H]4C[C@@H](O[C@H]6C[C@](C)(O)[C@@H](OC(C)=O)[C@H](C)O6)[C@H](O)[C@@H](C)O4)[C@H](O)[C@@H](C)O3)[C@H]([C@H](OC)C(=O)[C@@H](O)[C@@H](C)O)C5)O[C@H](C)[C@@H]2OC(C)=O)O[C@@H]1C [CHROMOMYCIN A3] | 19 | 11 | inactive | – | inactive | 26 | – | – | – | inactive | – | inactive | inactive | zone of inhibition at 0.04 µg/disc ([11]; ATCC 4900315, 120 h, read-out: DIZ): 13 mm |
| N=C(N)NCC(O)CC(O)(C(=O)O)[C@@H]1O[C@@H](N2C=C(CO)C(N)=NC2O)C=C[C@@H]1NC(=O)[C@@H](N)CO (stereo not given in full) [MILDIOMYCIN] | 11 | – | inactive | 22 | inactive | 28 | inactive | – | 12 | inactive | – | – | inactive | diameter of the inhibition zone (DIZ) (Streptomyces scabiei [2]): inactive |
| COc1ccc(C[C@H](N)C(=O)N[C@H]2[C@@H](O)[C@H](n3cnc4c(N(C)C)ncnc43)O[C@@H]2CO)cc1 [PUROMYCIN] | – | – | inactive | – | inactive | 20 | inactive | – | – | inactive | inactive | inactive | inactive | diameter of the inhibition zone (DIZ) (Streptomyces scabiei [2]): inactive |
| CN(C)[C@@H]1C(O)=C(C(N)=O)C(=O)[C@@]2(O)C(O)=C3C(=O)c4c(O)cccc4[C@@](C)(O)[C@H]3[C@H](O)[C@@H]12 [OXYTETRACYCLINE] | 16 | 37 | inactive | 34 | inactive | – | inactive | 13 | 13 | – | – | – | inactive | zone of inhibition at 0.04 µg/disc (Streptomyces scabiei [5]): 10 mm; diameter of the inhibition zone (DIZ) [9]: inactive |
| C=C(NC(=O)C(=C)NC(=O)c1csc(C2=N[C@@H]3c4csc(n4)[C@H]4NC(=O)c5csc(n5)[C@H]([C@](C)(O)[C@@H](C)O)NC(=O)[C@H]5CSC(=N5)/C(=C/C)NC(=O)[C@H]([C@@H](C)O)NC(=O)c5csc(n5)[C@]3(CC2)NC(=O)[C@H](C)NC(=O)C(=C)NC(=O)[C@H](C)NC(=O)[C@H]([C@@H](C)CC)N[C@@H]2C=Cc3c([C@H](C)O)cc(nc3[C@H]2O)C(=O)O[C@@H]4C)n1)C(N)=O [THIOSTREPTON] | 11 | 12 | inactive | 13 | inactive | 24 | inactive | – | – | inactive | – | inactive | inactive | zone of inhibition at 0.4 µg/disc (Streptomyces alboniger [14]): 14 mm |
| CN[C@@H]1[C@H](O[C@H]2[C@H](O[C@H]3[C@H](O)[C@@H](O)[C@H](N=C(N)N)[C@@H](O)[C@@H]3N=C(N)N)O[C@@H](C)[C@]2(O)C=O)O[C@@H](CO)[C@H](O)[C@H]1O [STREPTOMYCIN] | – | 28 | inactive | – | inactive | – | inactive | 18 | 19 | inactive | inactive | – | inactive | zone of inhibition at 0.4 µg/disc (Streptomyces alboniger [14]): 15 mm; diameter of the inhibition zone (DIZ) [9]: inactive; zone of inhibition at 0.4 µg/disc (Streptomyces scabiei [10]): 13 mm |
| C[C@@H]1O[C@@H]1P(=O)(O)O [FOSFOMYCIN] | – | 17 | inactive | – | inactive | – | inactive | – | 16 | – | inactive | – | inactive | zone of inhibition at 0.04 µg/disc (Streptomyces scabiei [5]): 16 mm; diameter of the inhibition zone (DIZ) [9]: inactive |
| CO[C@H]1/C=C/O[C@@]2(C)Oc3c(C)c(O)c4c(O)c(cc(O)c4c3C2=O)NC(=O)/C(C)=C\C=C\[C@H](C)[C@H](O)[C@@H](C)[C@@H](O)[C@@H](C)[C@H](OC(C)=O)[C@@H]1C [RIFAMYCIN] | – | 11 | – | – | inactive | 12 | inactive | – | – | inactive | inactive | inactive | – | zone of inhibition at 0.4 µg/disc (Streptomyces alboniger [3]): 21 mm; diameter of the inhibition zone (DIZ) [4]: inactive; zone of inhibition at 0.4 µg/disc (Streptomyces alboniger [14]): 11 mm; diameter of the inhibition zone (DIZ) (Streptomyces scabiei [10]): inactive |
